The source of these data is US8703956B2, “Amorphous (5-fluoro-2-methyl-3-quinolin-2-ylmethyl-indol-1-yl)-acetic acid” (Atopix Therapeutics Limited, priority 2011, dated 2014).

By solubility is commonly meant how much of the substance goes into solution per volume.

Data set [1] in a line: Solubility in aqueous solutions (Example 10). Format: physicochemical. The conditions noted are these: for Solubility in water: Table 12; for solubility: thermodynamic from solid, read-out: Compound 1 Solubility; for Increase in water solubility: relative to Compound 1 as-received (0.0006 mg/mL). The protocol: Crystalline and amorphous Compound 1/polymer formulation solubility was determined in different aqueous media (Tables 8A and 8B).
As mentioned earlier, the high solubility of the Compound 1 sodium salt most probably resulted from the conversion of the Compound 1 to its ionized form. In relation to crystalline Compound 1 (as-received sample), formulations containing amorphous form (Tables 11A and 11B) were more soluble than crystalline form under all studied conditions.

Data set [2] relates to moderate persistent asthma. The conditions noted are these: Barnes et al., European Respiratory Journal 34, suppl. 53, 2009; cited from earlier work.
Data set [3] in a line: Solubility screening in solvents (Example 2). The data set is classed as physicochemical. The conditions noted are these: thermodynamic from solid, read-out: Compound 1 Solubility; for solubility at 12 h: 12 h room temperature. The protocol:
Before carrying out spray drying experiments, a solvent screening was performed to determine potential solvent that will allow sufficient concentration of Compound 1 in spray drying solution. Approximately 50 mg of Compound 1 was added to 100 mL of each evaluated solvent until visual observation of solution saturation. […]

Another data set relates to animal models of asthma. The conditions noted are these: in vivo; cited from earlier work.
A short description of data set [4]: Solubility in USP simulated gastric and intestinal fluids (Example 11). Format: physicochemical. The conditions noted are these: SGF pH 1.2 and SIF pH 6.8, 37° C. Here is the method:
The solubilization profile was obtained of various compositions in USP Simulated Gastric Fluid (SGF) and USP Simulated Intestinal Fluid (SIF) with pH 1.2 and 6.8, respectively. […] The concentration of the solution was based on the hypothesis that the test should simulate a dissolution test for a 100 mg dose strength tablet or capsule in 900 ml of dissolution media.
The solubility was tested for the crystalline compound 1 with a purity of 98.9%, and for the amorphous compositions of Examples 6M and 6O (Lots 031 and 033). The following procedure was followed: • A shaking water bath was filled and water temperature left to equilibrate to 37° C. for 24 hours. • USP simulated gastric fluid was prepared as described in the UPS 31, Solutions: Test solutions. • USP simulated intestinal fluid was prepared as described in the UPS 31, Solutions: Test solutions. • The equivalent of 12.5 mg of Compound 1 was weighed and transferred into a 125 mL Erlenmeyer flask, with 100 mL of medium. […]
The amount of dissolved material was determined with respect to a standard and is reported as the percentage of material dissolved with respect to the standard as well as in absolute mg/ml.

≈ marks a conversion by molar mass, not a printed value. Structures can show the parent of a compound that is named as a salt. Where two headings read alike, the source gives them in different places.

With `Cc1c(Cc2ccc3ccccc3n2)c2cc(F)ccc2n1CC(=O)O` [Compound 1 sodium salt], the Solubility in water in data set [1] turned out to be 15370 µg/mL. Besides, the “Compound 1 Solubility” value in data set [1] (Water) is 15370 µg/mL; in data set [1] (pH 1.0) it was 3.6 µg/mL; in data set [1] (pH 4.5) it was 2605 µg/mL; in data set [1] (pH 6.8 K) it was 8554 µg/mL; in data set [1] (pH 8.0 K) it was 5571 µg/mL; in data set [1] (pH 8.0 Na), 1744 µg/mL. Also, the solubility in data set [1] (Water + 1% SDS, aqueous with cosolvent or surfactant or cyclodextrin, Water + 1% SDS) is over 30000 µg/mL; in data set [1] (Water + 1% Tween 20, aqueous with cosolvent or surfactant or cyclodextrin, Water + 1% Tween 20) it was over 26000 µg/mL; in data set [1] (Water + 1% Tween 80, aqueous with cosolvent or surfactant or cyclodextrin, Water + 1% Tween 80), over 21000 µg/mL; in data set [1] (pH 6.8 + 1% HTAB, pH 6.8, aqueous with cosolvent or surfactant or cyclodextrin, pH 6.8 + 1% HTAB), 4110 µg/mL; in data set [1] (pH 6.8 + 1% Tween 20, pH 6.8, aqueous with cosolvent or surfactant or cyclodextrin, pH 6.8 + 1% Tween 20) it was 128 µg/mL; in data set [1] (pH 6.8 + 1% Tween 80, pH 6.8, aqueous with cosolvent or surfactant or cyclodextrin, pH 6.8 + 1% Tween 80), 3220 µg/mL. The solubility in data set [1] (pH 6.8 Na (sodium buffer), pH 6.8, aqueous buffer, pH 6.8 Na) was found to be 2490 µg/mL. Moreover, the “Increase in water solubility” value in data set [1] was found to be 2561667%.
On to `Cc1c(Cc2ccc3ccccc3n2)c2cc(F)ccc2n1CC(=O)O` [Compound 1, (5-Fluoro-2-methyl-3-quinolin-2-ylmethyl-indol-1-yl)-acetic acid], for which the Solubility in water in data set [1] worked out at 0.6 µg/mL (≈ 1.72 µM). In addition, the “Compound 1 Solubility” value stood at 0.6 µg/mL in data set [1] (Water); 1.9 µg/mL in data set [1] (pH 4.5); 0.3 µg/mL in data set [1] (pH 6.8 K); 0.8 µg/mL in data set [1] (pH 8.0 K); 0.3 µg/mL in data set [1] (pH 8.0 Na). In addition, the solubility in data set [1] (aqueous medium pH 1.0, pH 1, simulated gastric fluid, pH 1.0) is 2.1 µg/mL (≈ 6.03 µM); in data set [3] (aqueous buffer, Sodium hydroxide 0.5N, at 45° C.) it was over 90000 µg/mL. In data set [2], the “efficacy in a clinical trial with human asthma patients” value was “effective”. Besides, the solubility at 12 h in data set [3] (aqueous buffer, Tris(hydroxymethyl) aminoethane (1% w/v)) is under 500 µg/mL; in data set [3] (aqueous with cosolvent or surfactant or cyclodextrin, DMSO/H2O (50/50 v/v)), under 500 µg/mL; in data set [3] (aqueous with cosolvent or surfactant or cyclodextrin, DMSO/H2O (75/25 v/v)), 2000 to 2500 µg/mL (≈ 5740 to 7180 µM); in data set [3] (aqueous with cosolvent or surfactant or cyclodextrin, Hexadecyltrimethylammonium (0.05% w/v)), under 500 µg/mL; in data set [3] (aqueous with cosolvent or surfactant or cyclodextrin, Sodium dodecyl sulfate (2% w/v)) it was under 500 µg/mL; in data set [3] (aqueous with cosolvent or surfactant or cyclodextrin, Span 80 (1% v/v)) it was under 500 µg/mL. In addition, the solubility at 12 h was under 500 µg/mL in data set [3] (aqueous with cosolvent or surfactant or cyclodextrin, Tween 80 (1% v/v)); under 500 µg/mL in data set [3] (organic solvent or mixture, Carbon tetrachloride); under 500 µg/mL in data set [3] (organic solvent or mixture, Chloroform); 1000 to 1500 µg/mL (≈ 2870 to 4310 µM) in data set [3] (organic solvent or mixture, DMSO/DCM (50/50 v/v)); 2500 to 3000 µg/mL (≈ 7180 to 8610 µM) in data set [3] (organic solvent or mixture, DMSO/DCM (75/25 v/v)); 500 to 1000 µg/mL (≈ 1440 to 2870 µM) in data set [3] (organic solvent or mixture, DMSO/Ethanol (50/50 v/v)). Also, the solubility at 12 h in data set [3] (organic solvent or mixture, DMSO/Ethanol (75/25 v/v)) is 500 to 1000 µg/mL (≈ 1440 to 2870 µM); in data set [3] (organic solvent or mixture, Dichloromethane (DCM)), under 500 µg/mL; in data set [3] (organic solvent or mixture, Dimethyl sulfoxide (DMSO)), 5500 to 6000 µg/mL (≈ 15800 to 17200 µM); in data set [3] (organic solvent or mixture, Toluene) it was under 500 µg/mL; in data set [3] (Purified water), under 500 µg/mL. Further, the “efficacy in animal models of asthma” value with animal models of asthma is “effective”. Moreover, the “solubility in SGF and SIF” value in data set [4] is “very poor solubility”.
`Cc1c(Cc2ccc3ccccc3n2)c2cc(F)ccc2n1CC(=O)[O-].[Na+]` [Lot 002] displayed a Solubility in water in data set [1] of 16870 µg/mL. Also, the “Compound 1 Solubility” value is 16870 µg/mL in data set [1] (Water); over 17000 µg/mL in data set [1] (Water + 1% SDS); over 22000 µg/mL in data set [1] (Water + 1% Tween 20); over 14000 µg/mL in data set [1] (Water + 1% Tween 80); 9.1 µg/mL in data set [1] (pH 1.0); 5 µg/mL in data set [1] (pH 4.5). The “Compound 1 Solubility” value amounted to 3597 µg/mL in data set [1] (pH 6.8 + 1% HTAB); 162.3 µg/mL in data set [1] (pH 6.8 + 1% Tween 20); 226 µg/mL in data set [1] (pH 6.8 + 1% Tween 80); 0.2 µg/mL in data set [1] (pH 6.8 K); 0.6 µg/mL in data set [1] (pH 6.8 Na); 2740 µg/mL in data set [1] (pH 8.0 K). Besides, the “Compound 1 Solubility” value in data set [1] (pH 8.0 Na) stood at 1782 µg/mL. In data set [1], the “Increase in water solubility” value amounted to 2811667%.
